Where two headings read alike, the source gives them in different places.

The target of one test is T1, human KDR enzyme (Homo sapiens, UniProt P35968).
T1 construct: The cytoplasmic domain of the human KDR enzyme was cloned in GST fusion form; GST; made in house; host or cells: SF21 insect cells (baculovirus, pFastBac)
In words: KDR kinase inhibition: phosphorylation of PLCγ SH2-SH3 substrate by KDR enzyme, 33P-ATP scintillation plate. The class given is biochemical. The method, then: The inhibitory effect of the compounds is determined in an assay for phosphorylation of substrate by the KDR enzyme in vitro using a scintillation technique (96-well plate, NEN).
The cytoplasmic domain of the human KDR enzyme was cloned in GST fusion form into the baculovirus expression vector pFastBac. The protein was expressed in SF21 cells and purified to approximately 60% homogeneity. The KDR kinase activity is measured in 20 mM MOPS, 10 mM MgCl2, 10 mM MnCl2, 1 mM DTT, 2.5 mM EGTA, 10 mM b-glycerophosphate, pH=7.2, in the presence of 10 mM MgCl2, 100 μM Na3VO4 and 1 mM NaF. 10 μl of the compound are added to 70 μl of kinase buffer containing 100 ng of KDR enzyme at 4° C. The reaction is initiated by adding 20 μl of solution containing 2 μg of substrate (SH2-SH3 fragment of PLCγ expressed in the form of an GST fusion protein), 2 μCi γ ^33P[ATP] and 2 μM cold ATP. After incubation for 1 hour at 37° C., the reaction is stopped by adding 1 volume (100 μl) of 200 mM EDTA. The incubation buffer is removed and the wells are washed three times with 300 μl of PBS. The radioactivity is measured in each well using a Top Count NXT (Packard) radioactivity counter.
The background noise is determined by measuring the radioactivity in four different wells containing the radioactive ATP and the substrate alone.
A total activity control is measured in four different wells containing all the reagents (γ^33P-[ATP], KDR and PLC-γ substrate) but in the absence of compound.
The inhibition of the KDR activity with the compound of the invention is expressed as percentage inhibition of the control activity determined in the absence of compound.
The compound SU5614 (Calbiochem) (1 μM) is included in each plate as inhibition control.

A further test concerns the target T2, human Tie2 (Homo sapiens, UniProt Q02763).
T2 construct: human Tie2 corresponding to amino acids 776-1124 of the intracellular domain was generated by PCR; made in house; host or cells: baculovirus expression system (vector pFastBacGT)
Description: Tie2 kinase inhibition: phosphorylation of GST-PLC (SH2-SH3 fragments) by GST-Tie2, 33P-ATP flashplate. The class given is biochemical. The method, then: The coding sequence of human Tie2 corresponding to amino acids 776-1124 of the intracellular domain was generated by PCR using the cDNA isolated from human placenta as model. This sequence was introduced into a baculovirus expression vector pFastBacGT in the form of a GST fusion protein.
The inhibitory effect of the molecules is determined in an assay for phosphorylation of PLC by Tie2 in the presence of GST-Tie2 purified to approximately 80% homogeneity. The substrate is made up of the SH2-SH3 fragments of PLC, the latter being expressed in the form of a GST fusion protein.
The kinase activity of Tie2 is measured in a 20 mM MOPS buffer, pH 7.2, containing 10 mM MgCl2, 10 mM MnCl2, 1 mM DTT and 10 mM of glycerophosphate. A reaction mixture made up of 70 μl of kinase buffer containing 100 ng of GST-Tie2 enzyme per well is placed in a flashplate 96-well plate kept on ice. 10 μl of the molecule to be tested, diluted in DMSO, at a concentration of at most 10% are then added. For a given concentration, each measurement is carried out in quadruplicate. The reaction is initiated by adding 20 μl of solution containing 2 μg of GST-PLC, 2 μM of cold ATP and 1 μCi of ^33P[ATP]. After incubation for 1 hour at 37° C., the reaction is stopped by adding 1 volume (100 μl) of 200 mM EDTA. After removal of the incubation buffer, the wells are washed three times with 300 μl of PBS. The radioactivity is measured on a Wallac MicroBeta 1450.
The inhibition of the Tie2 activity is calculated and expressed as percentage inhibition with respect to the control activity determined in the absence of compound.

T2 sequence (Q02763 776-1124): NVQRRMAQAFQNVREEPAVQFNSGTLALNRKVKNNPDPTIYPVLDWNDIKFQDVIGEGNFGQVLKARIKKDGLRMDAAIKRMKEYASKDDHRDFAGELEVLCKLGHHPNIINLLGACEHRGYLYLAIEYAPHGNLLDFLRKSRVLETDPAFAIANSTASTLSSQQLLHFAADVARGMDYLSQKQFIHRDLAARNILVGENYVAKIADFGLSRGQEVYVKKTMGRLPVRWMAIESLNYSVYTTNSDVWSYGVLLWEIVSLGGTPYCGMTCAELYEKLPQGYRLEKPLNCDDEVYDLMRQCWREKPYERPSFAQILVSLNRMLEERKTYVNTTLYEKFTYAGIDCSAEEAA
T1 sequence (P35968 786-1356 limits assumed): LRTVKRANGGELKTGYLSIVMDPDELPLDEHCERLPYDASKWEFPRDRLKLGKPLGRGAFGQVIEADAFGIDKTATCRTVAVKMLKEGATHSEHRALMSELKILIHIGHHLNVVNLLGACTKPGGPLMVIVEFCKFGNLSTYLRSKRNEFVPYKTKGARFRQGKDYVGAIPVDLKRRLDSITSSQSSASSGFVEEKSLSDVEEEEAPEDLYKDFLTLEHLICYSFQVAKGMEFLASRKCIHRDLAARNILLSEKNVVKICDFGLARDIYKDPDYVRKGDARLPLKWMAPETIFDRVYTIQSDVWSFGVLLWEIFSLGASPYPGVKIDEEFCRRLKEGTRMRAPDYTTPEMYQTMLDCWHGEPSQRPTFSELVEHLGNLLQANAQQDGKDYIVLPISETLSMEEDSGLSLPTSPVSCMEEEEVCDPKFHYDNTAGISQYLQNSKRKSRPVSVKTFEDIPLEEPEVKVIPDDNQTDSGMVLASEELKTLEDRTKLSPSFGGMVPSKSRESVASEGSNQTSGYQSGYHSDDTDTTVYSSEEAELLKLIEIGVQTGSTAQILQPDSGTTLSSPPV

As for `Cc1cc2nc(-c3[nH]nc4c3CCN(Cc3ccc(Cl)cc3)C4)[nH]c2cc1C` [Chemistry 12], the values for the inhibition at 10 µM at human KDR enzyme (read-out: KDR % Inhib. 10 μM) and on human Tie2 (read-out: Tie2 % Inhib. 10 μM) were 69% and 60.3%, respectively.
With `Cc1cc2nc(-c3[nH]nc4c3CCN(S(=O)(=O)c3ccccc3Cl)C4)[nH]c2cc1C` [Chemistry 31], the inhibition at 10 µM was 45.7% at human KDR enzyme (read-out: KDR % Inhib. 10 μM) and 93.2% on human Tie2 (read-out: Tie2 % Inhib. 10 μM).
The matching figures for `Cc1cc2nc(-c3[nH]nc4c3CCN(C)C4)[nH]c2cc1C` [Chemistry 7]: 12.2% and 48.6%.
Regarding `COc1ccccc1NC(=O)N1CCc2c(n[nH]c2-c2nc3cc(C)c(C)cc3[nH]2)C1` [Chemistry 67], the values for the inhibition at 10 µM at human KDR enzyme (read-out: KDR % Inhib. 10 μM) and at human Tie2 (read-out: Tie2 % Inhib. 10 μM) were 8.1% and 18.1%, respectively.
Turning to `Cc1cc2nc(-c3[nH]nc4c3CCN(C(=O)c3ccccc3Nc3cccc(C(F)(F)F)c3)C4)[nH]c2cc1C` [Example P-31378-112-4], the inhibition at 10 µM at human KDR enzyme (Assay 1, read-out: KDR % Inhib at 10 μM Assay 1) came out at 56.2%; on human KDR enzyme (Assay 2, read-out: KDR % Inhib at 10 μM Assay 2), 50.1%; on human Tie2 (Assay 1, read-out: Tie2 % Inhib at 10 μM (FRX) Assay 1), 83.1%; at human Tie2 (Assay 2, read-out: Tie2 % Inhib at 10 μM (FRX) Assay 2), 87.2%.
Consider `Cc1cc2nc(-c3[nH]nc4c3CCN(C(=O)Nc3cccc(Cl)c3)C4)[nH]c2cc1C` [Chemistry 62], for which the inhibition at 10 µM on human KDR enzyme (read-out: KDR % Inhib. 10 μM) amounted to 12.8%; on human Tie2 (read-out: Tie2 % Inhib. 10 μM), 21%.
The like results for `Cc1cc2nc(-c3[nH]nc4c3CCN(C(=O)C(C)(C)C)C4)[nH]c2cc1C` [Chemistry 54] were, in that order, 11.2% and 81.3%.
The like results for `Cc1cc2nc(-c3[nH]nc4c3CCN(S(=O)(=O)CC(F)(F)F)C4)[nH]c2cc1C` [Chemistry 27] were, in that order, 22.9% and 65.4%.
The like results for `Cc1cc2nc(-c3[nH]nc4c3CCN(C(=O)Cc3ccccc3)C4)[nH]c2cc1C` [Chemistry 43] were, in that order, 10.9% and 84.4%.
In the case of `Cc1cc2nc(-c3[nH]nc4c3CCN(Cc3ccccc3)C4)[nH]c2cc1C` [Chemistry 8], the inhibition at 10 µM at human KDR enzyme (read-out: KDR % Inhib. 10 μM) is 85.5%; on human Tie2 (read-out: Tie2 % Inhib. 10 μM) it was 64.3%.
The matching figures for `COc1cccc(S(=O)(=O)N2CCc3c(n[nH]c3-c3nc4cc(C)c(C)cc4[nH]3)C2)c1` [Chemistry 38]: 20.9% and 84.6%.
Regarding `Cc1cc2nc(-c3[nH]nc4c3CCN(C(=O)c3ccccc3Nc3ccccc3)C4)[nH]c2cc1C` [Example P-31378-112-2], at human KDR enzyme (Assay 1), the “KDR % Inhib at 10 μM Assay 1” value came to 98.1%. Moreover, on human KDR enzyme (Assay 2), the “KDR % Inhib at 10 μM Assay 2” value is given as 97.4%. For the same molecule, the “Tie2 % Inhib at 10 μM (FRX) Assay 1” value on human Tie2 (Assay 1, 10 µM) is on record as 92.6%. Further, the “Tie2 % Inhib at 10 μM (FRX) Assay 2” value at human Tie2 (Assay 2, 10 µM) came out at 92.6%.
Turning to `Cc1cc2nc(-c3[nH]nc4c3CCNC4)[nH]c2cc1C` [Chemistry 22], the values for the inhibition at 10 µM at human KDR enzyme (read-out: KDR % Inhib. 10 μM) and on human Tie2 (read-out: Tie2 % Inhib. 10 μM) were 3.65% and 24.9%, respectively.
In the case of `Cc1cc2nc(-c3[nH]nc4c3CCN(S(=O)(=O)Cc3ccc(F)cc3)C4)[nH]c2cc1C` [Chemistry 33], the inhibition at 10 µM at human KDR enzyme (read-out: KDR % Inhib. 10 μM) was determined as 57.7%; on human Tie2 (read-out: Tie2 % Inhib. 10 μM), 95.9%.
The like results for `CCCCS(=O)(=O)N1CCc2c(n[nH]c2-c2nc3cc(C)c(C)cc3[nH]2)C1` [Chemistry 30] were, in that order, 15.3% and 44.2%.

The values are drawn from patent US7435820B2, “Substituted tetrahydro-1H-pyrazolo [3,4-c]pyridines compositions comprising them, and use” (Aventis Pharma S.A., priority 2003, dated 2008).
